Read-outs that look alike come from different tables or passages of the source.
Experiments:
[1] = cited from earlier work
cells = conditions: equimolar basis, compared with HOCl; cited from earlier work
acne vulgaris = test: Preclinical trial of washing solution, anti-acne activity; type: in vivo
Description: The concentration of HOCl in the washing solution may be higher than this value depending on where the washing solution is to be applied, e.g. when treating a patient's back for trunk acne, the concentration of HOCl in the washing solution may be as high as 60 ppm for maximum effect in the short term because the thickness of skin on this section of a body is around 3 mm (as compared to a skin thickness of 0.1 mm at the chin section of the face).
Treatment is divided into two stages, treatment period and maintenance period. User should conduct the treatment daily during treatment period until no acne break out; then can switch to maintenance period.
• 1. Wash the face regularly with soap completely removing oil and grime from the surface of the skin. Concentrate on areas of the skin prone to suffering from acne, such as forehead, chin, jawline, around the lips and nose. • 2. Prepare the washing solution as indicated in Examples 1A-1I. • 3. Submerge your face fully into the washing solution, in order to extend time for skin contacting with the solution, moving the head as much as practical while submerged. […]

bacteria = conditions: hot tubs, spas and swimming pools; cited from earlier work
[2] = cited from earlier work; remark: listed apart in the source

For `OBr` [HOBr, hypobromous acid], the “% of bromine as HOBr” value ([1]; water pH 6.0) is given as 100%, the “% of bromine as HOBr” value ([1]; water pH 6.5) is given as 99.4% and the “% of bromine as HOBr” value ([1]; water pH 7.0) is given as 98%. For the same molecule, the “% of bromine as HOBr” value ([1]; water pH 7.5) was 94.0%, the “% of bromine as HOBr” value ([1]; water pH 8.0) was 83.0% and the “% of bromine as HOBr” value ([1]; water pH 8.5) was 57.0%. For the same molecule, the “efficiency as a lytic agent, factor relative to HOCl” value (cells) was 10 and the “anti-acne activity compared with hypochlorous acid” value (acne vulgaris) was “slightly less effective than hypochlorous acid”.
In the case of `OCl` [HOCl, hypochlorous acid], the “time needed to completely destroy a given concentration of bacteria” value (bacteria) is listed as 30 s, the “FAC existing as active HOCl” value ([2]; pH above 7.5) is listed as under 50% and the “% of Chlorine as HOCl” value ([2]; water pH 6.5) is listed as 90%. For the same molecule, the “% of Chlorine as HOCl” value ([2]; water pH 7.0) was 73%, the “% of Chlorine as HOCl” value ([2]; water pH 7.2) was 66% and the “share of FAC in the active HOCl form” value ([2]; water pH 7.5) was about 50%. The “% of Chlorine as HOCl” value ([2]; water pH 7.6) was 45%, the “% of Chlorine as HOCl” value ([2]; water pH 8.0) was 21% and the “% of Chlorine as HOCl” value ([2]; water pH 8.5) was 10%.
For `OBr` [OBr^−, hypobromite], the “% bromine as OBr−” value ([1]; water pH 6.0) is listed as 0.0%, the “% bromine as OBr−” value ([1]; water pH 6.5) is listed as 0.6% and the “% bromine as OBr−” value ([1]; water pH 7.0) is listed as 2%. For the same molecule, the “% bromine as OBr−” value ([1]; water pH 7.5) was 6.0%, the “% bromine as OBr−” value ([1]; water pH 8.0) was 17.0% and the “% bromine as OBr−” value ([1]; water pH 8.5) was 43.0%.
In the case of Hypochlorite ion [OCl^−], the “% chlorine as OCl−” value ([2]; water pH 6.5) is given as 10%, the “% chlorine as OCl−” value ([2]; water pH 7.0) is given as 27% and the “% chlorine as OCl−” value ([2]; water pH 7.2) is given as 34%. The “% chlorine as OCl−” value ([2]; water pH 7.6) was 55%, the “% chlorine as OCl−” value ([2]; water pH 8.0) was 79% and the “% chlorine as OCl−” value ([2]; water pH 8.5) was 90%.

From patent US20080014289A1, “Vehicle and method for treating and preventing acne vulgaris and exfoliating the skin hypohalous acids” (priority 2006, published 2008)
